The subject of assay [1] is HIV-1 replication in T-lymphoid cells. Put plainly: Assay for inhibition of HIV replication (spread assay). The following applies: 10% FBS. Type of assay: cell-based. The method, then:
Assays for the inhibition of acute HIV infection of T-lymphoid cells were conducted in accordance with Vacca, J. P. et al., Proc. Natl. Acad. Sci. USA 91: 4096-4100 (1994).

The next assay has as its target wild-type HIV-1 protease (Human immunodeficiency virus type 1 group M subtype B (isolate HXB2) (HIV-1), UniProt P04585). Put plainly: Assay for inhibition of microbial expressed HIV protease. The following applies: wild-type HIV-1 protease enzyme. Type of assay: biochemical. The protocol: The inhibition of WT HIV-1 protease was studied using the reaction of the protease (expressed in Escherichia coli) with a peptide substrate as described in WO 2009/042094. The test compound was first preincubated with the enzyme in assay buffer (50 mM sodium acetate, pH 5.5, 100 mM NaCl, and 0.1% BSA) for 30 minutes at room temperature. Substrate was then added to 400 micromolar in a total volume of 80 microliters containing 10 picomolar HIV-1 protease and the reaction was incubated for 1 hour at 30° C. The reaction was quenched with the addition of 120 microliters of 10% phosphoric acid. The product formation was determined after separation of product and substrate on a ZORBAX® Eclipse XDB-C18 (Agilent Technologies, Palo Alto, Calif.) column connected to an Agilent 1100 high performance liquid chromatography system with fluorescence detection (excitation 270 nanometer and emission 330 nanometer). Alternatively, the inhibitor was preincubated with enzyme and substrate as described above, but in a total volume of 20 microliters containing 20 picomolar HIV-1 protease and the reaction was incubated for 1 hour at 30° C. The reaction was quenched with the addition of 30 microliters of 1 micromolar indinavir (indinavir was also used as an internal standard), and the product formation was determined after separation of product and substrate on a ZORBAX® Eclipse XDB-C18 column connected to an API 4000 mass spectrometer (Applied Biosystems, Carlsbad, Calif.) with multiple reaction monitoring (transitions were 644.5/428.9 and 615.4/422.2 (M1/M3) for product and indinavir respectively). The extent of inhibition of the reaction was determined from the peak area of the products. HPLC of the products, independently synthesized, provided quantitation standards and confirmation of the product composition.

The mark [2] stands for this setting: Human immunodeficiency virus 1, T-lymphoid.

On to `COC(=O)N[C@H](C(=O)NCCC(F)C[C@@H](CO)N(C(C)C)S(=O)(=O)c1ccc(N)cc1)C(c1ccccc1)c1ccccc1` (stereo partly drawn) [Example 10, N-[(5S)-5-{[(4-aminophenyl)sulfonyl](propan-2-yl)amino}-3-fluoro-6-hydroxyhexyl]-Nα-(methoxycarbonyl)-β-phenyl-L-phenylalaninamide], for which the IC95 in assay [1] (setting [2]) amounted to 246 nM. The molecule also came in with an IC50 at wild-type HIV-1 protease of 3.9 nM.

As for `CCCCCN([C@H](CO)CCC(F)(F)CNC(=O)[C@@H](NC(=O)OC)C(c1ccccc1)c1ccccc1)S(=O)(=O)c1ccc(CO)cc1` [Example 2], the IC95 in assay [1] (setting [2]) is 16.3 nM. At wild-type HIV-1 protease, the IC50 is 0.019 nM.

In assay [1] (setting [2]), `COC(=O)N[C@H](C(=O)NCCC(F)(F)C[C@@H](CO)N(C(C)C)S(=O)(=O)c1ccc(N)cc1)C(c1ccccc1)c1ccccc1` [Example 8, N-[(5S)-5-{[(4-aminophenyl)sulfonyl](propan-2-yl)amino}-3,3-difluoro-6-hydroxyhexyl]-Nα-(methoxycarbonyl)-β-phenyl-L-phenylalaninamide] showed an IC95 of 299 nM. This molecule also had an IC50 at wild-type HIV-1 protease of 6.07 nM.

`COC(=O)N[C@H](C(=O)NCC(F)(F)CC[C@@H](CO)N(CC1CC(F)(F)C1)S(=O)(=O)c1ccc2ncsc2c1)C(c1ccccc1)c1ccccc1` [Example 4, N-[(5S)-5-{(1,3-benzothiazol-6-ylsulfonyl)[(3,3-difluorocyclobutyl)methyl]amino}-2,2-difluoro-6-hydroxyhexyl]-Nα-(methoxycarbonyl)-β-phenyl-L-phenylalaninamide]: the IC95 in assay [1] (setting [2]) is 181 nM. At wild-type HIV-1 protease, this molecule yielded an IC50 of 0.59 nM.

The molecule `COC(=O)N[C@H](C(=O)NCCC(F)(F)C[C@@H](CO)N(CC1CC(F)(F)C1)S(=O)(=O)c1ccc2ncsc2c1)C(c1ccccc1)c1ccccc1` [Example 9, N-[(5S)-5-{(1,3-benzothiazol-6-ylsulfonyl)[(3,3-difluorocyclobutyl)methyl]amino}-3,3-difluoro-6-hydroxyhexyl]-Nα-(methoxycarbonyl)-β-phenyl-L-phenylalaninamide] gave an IC95 in assay [1] (setting [2]) of 105 nM. Further, the IC50 against wild-type HIV-1 protease turned out to be 5.62 nM.

On to `COC(=O)N[C@H](C(=O)NCC(F)(F)CC[C@@H](CO)N(C1CCC(F)(F)CC1)S(=O)(=O)c1ccc2ncsc2c1)C(c1ccccc1)c1ccccc1` [Example 6, N-{(5S)-5-[(1,3-benzothiazol-6-ylsulfonyl)(4,4-difluorocyclohexyl)amino]-2,2-difluoro-6-hydroxyhexyl)-Nα-(methoxycarbonyl)-β-phenyl-L-phenylalaninamide], for which the 95% effect level in assay [1] (setting [2]) (IC95) was put at 356 nM. Moreover, inhibition at wild-type HIV-1 protease was half-maximal at 2.73 nM (IC50).

The molecule `COC(=O)N[C@H](C(=O)NCC(F)(F)CC[C@@H](C(N)=O)N(CC1CC(F)(F)C1)S(=O)(=O)c1ccc2ncsc2c1)C(c1ccccc1)c1ccccc1` [Example 7, N^6-[N-(methoxycarbonyl)-β-phenyl-L-phenylalanyl]-N^2-(1,3-benzothiazol-6-ylsulfonyl)-N^2-[(3,3-difluorocyclobutyl)methyl]-5,5-difluoro-L-lysinamide] came in with a concentration for an effect of 95% (IC95) in assay [1] (setting [2]) of 200 nM. At wild-type HIV-1 protease, this molecule displayed a 50% inhibitory concentration (IC50) of 0.43 nM.

Molecule `COC(=O)N[C@H](C(=O)NCC(F)CC[C@@H](CO)N(CCC(C)C)S(=O)(=O)c1ccc(N)cc1)C(c1ccccc1)c1ccccc1` (stereo partly drawn) [Example 1, N-[(5S)-5-{[(4-aminophenyl)sulfonyl](3-methylbutyl)amino}-2-fluoro-6-hydroxyhexyl]-Nα-(methoxycarbonyl)-β-phenyl-L-phenylalaninamide] gave an IC95 in assay [1] (setting [2]) of 10.7 nM. At wild-type HIV-1 protease, the IC50 turned out to be 0.03 nM.

As to `COC(=O)N[C@H](C(=O)NCC(F)(F)CC[C@@H](CO)N(Cc1cn[nH]c1)S(=O)(=O)c1ccc2ncsc2c1)C(c1ccccc1)c1ccccc1` [Example 5, N-{(5S)-5-[(1,3-benzothiazol-6-ylsulfonyl)(1H-pyrazol-4-ylmethyl)amino]-2,2-difluoro-6-hydroxyhexyl}-Nα-(methoxycarbonyl)-β-phenyl-L-phenylalaninamide], it took 907 nM to reach the 95% level in assay [1] (setting [2]) (IC95). On wild-type HIV-1 protease, this molecule displayed an IC50 of 0.39 nM.

For `COC(=O)N[C@H](C(=O)NCC(F)CC[C@@H](CO)N(CCC(C)C)S(=O)(=O)c1ccc(N)cc1)C(c1ccccc1)c1ccccc1` (single isomer, unassigned) [Example 1-1, N-[(2R or S,5S)-5-{[(4-aminophenyl)sulfonyl](3-methylbutyl)amino}-2-fluoro-6-hydroxyhexyl]-Nα-(methoxycarbonyl)-β-phenyl-L-phenylalaninamide], in assay [1], the IC95 was 42.8 nM. For the same molecule, the IC50 against wild-type HIV-1 protease came to 0.24 nM.

In assay [1], `COC(=O)N[C@H](C(=O)NCC(F)CC[C@@H](CO)N(CCC(C)C)S(=O)(=O)c1ccc(N)cc1)C(c1ccccc1)c1ccccc1` (single isomer, unassigned) [Example 1-2, N-[(2R or S,5S)-5-{[(4-aminophenyl)sulfonyl](3-methylbutyl)amino}-2-fluoro-6-hydroxyhexyl]-Nα-(methoxycarbonyl)-β-phenyl-L-phenylalaninamide] had an IC95 of 19.5 nM. This molecule also came in with an IC50 against wild-type HIV-1 protease of 0.01 nM.

The term IC95 denotes the concentration at which the effect reaches the 95% level. A high value points to a need for much substance. Usually IC50 stands for the concentration at which inhibition is half-maximal. Higher therefore signals weaker potency in that assay.

Values taken from patent US9079834B2, “HIV protease inhibitors” (Merck Canada Inc., priority 2010, dated 2015).
